Test system: plants
Test: Test D pre-emergence, other plants of Tables D1 and D3
Format: in vivo
Conditions: for damage to plant (100=total damage to plant; 0=no damage to plant), ABUTH / damage to plant (100=total damage to plant; 0=no damage to plant), BIDPI / damage to plant (100=total damage to plant; 0=no damage to plant), BRAPL / damage to plant (100=total damage to plant; 0=no damage to plant), CYPES / damage to plant (100=total damage to plant; 0=no damage to plant), DIGSA / damage to plant (100=total damage to plant; 0=no damage to plant), ECHCG / damage to plant (100=total damage to plant; 0=no damage to plant), ELEIN / damage to plant (100=total damage to plant; 0=no damage to plant), EPHHL / damage to plant (100=total damage to plant; 0=no damage to plant), GLXMA / damage to plant (100=total damage to plant; 0=no damage to plant), IPOHE / damage to plant (100=total damage to plant; 0=no damage to plant), ORYSA / damage to plant (100=total damage to plant; 0=no damage to plant), PANMI / damage to plant (100=total damage to plant; 0=no damage to plant), SETFA / damage to plant (100=total damage to plant; 0=no damage to plant), SIDSP / damage to plant (100=total damage to plant; 0=no damage to plant), SORVU: preemergent, 20 DAA
Method: A formulation containing 50 g/L of the test chemical was prepared by dissolving the active ingredient in a mixture of organic solvents and emulsifier, details of which are provided in the table. This formulation was then mixed with a small, variable amount of acetone to aid dissolution, before addition of a 0.2% v/v aqueous solution of an adjuvant, as the aqueous diluent, to form an aqueous spray solution which contains a predetermined concentration of the active ingredient.
This aqueous spray solution was then sprayed onto plants including maize and wheat that had been seed treated with a herbicide safener, after one day's cultivation (for pre-emergence) or after about 12 days' cultivation (for post-emergence). The plants were grown from seeds sown in standard soil, placed in a glasshouse under controlled conditions (at 24/18° C. or 20/16° C., day/night; 16 h light; 65% humidity). After spray application the plants were then grown in a glasshouse under the same conditions and watered twice daily. After 15 d for post-emergence and 20 DAA for pre-emergence the test was evaluated (100=total damage to plant; 0=no damage to plant).

[1] = pre-emergence, rate 15, 20 DAA, 100=total damage, 0=no damage

CCn1nc([C@H]2CN(C)C(=O)[C@@H]2C(=O)Nc2cccc(F)c2F)c2ccc(F)cc21 [Compound 4]
20: damage to plant (100=total damage to plant; 0=no damage to plant), PANMI (rate 250)
60: damage to plant (100=total damage to plant; 0=no damage to plant), BRAPL (rate 60) | damage to plant (100=total damage to plant; 0=no damage to plant), DIGSA (rate 30)
70: damage to plant (100=total damage to plant; 0=no damage to plant), SETFA (rate 30) | damage to plant (100=total damage to plant; 0=no damage to plant), SETFA (rate 60)
40: damage to plant (100=total damage to plant; 0=no damage to plant), BRAPL (rate 15) | damage to plant (100=total damage to plant; 0=no damage to plant), BRAPL (rate 30) | damage to plant (100=total damage to plant; 0=no damage to plant), ECHCG (rate 30) | damage to plant (100=total damage to plant; 0=no damage to plant), PANMI (rate 500) | damage to plant (100=total damage to plant; 0=no damage to plant), SORVU (rate 250)
90: damage to plant (100=total damage to plant; 0=no damage to plant), BRAPL (rate 250) | damage to plant (100=total damage to plant; 0=no damage to plant), BRAPL (rate 500) | damage to plant (100=total damage to plant; 0=no damage to plant), DIGSA (rate 130) | damage to plant (100=total damage to plant; 0=no damage to plant), DIGSA (rate 250) | damage to plant (100=total damage to plant; 0=no damage to plant), DIGSA (rate 500) | damage to plant (100=total damage to plant; 0=no damage to plant), ECHCG (rate 130) | damage to plant (100=total damage to plant; 0=no damage to plant), ECHCG (rate 250) | damage to plant (100=total damage to plant; 0=no damage to plant), ECHCG (rate 500) | damage to plant (100=total damage to plant; 0=no damage to plant), SETFA (rate 250) | damage to plant (100=total damage to plant; 0=no damage to plant), SETFA (rate 500)
50: damage to plant (100=total damage to plant; 0=no damage to plant), SORVU (rate 500)
10: damage to plant (100=total damage to plant; 0=no damage to plant), ELEIN (rate 250) | damage to plant (100=total damage to plant; 0=no damage to plant), ELEIN (rate 500) | damage to plant (100=total damage to plant; 0=no damage to plant), EPHHL (rate 500) | damage to plant (100=total damage to plant; 0=no damage to plant), IPOHE (rate 500) | damage to plant (100=total damage to plant; 0=no damage to plant), SETFA (rate 15) | damage to plant (100=total damage to plant; 0=no damage to plant), SORVU (rate 60) | damage to plant (100=total damage to plant; 0=no damage to plant), SORVU (rate 130)
0: damage to plant (100=total damage to plant; 0=no damage to plant), ABUTH (rate 15) | damage to plant (100=total damage to plant; 0=no damage to plant), ABUTH (rate 30) | damage to plant (100=total damage to plant; 0=no damage to plant), ABUTH (rate 60) | damage to plant (100=total damage to plant; 0=no damage to plant), ABUTH (rate 130) | damage to plant (100=total damage to plant; 0=no damage to plant), ABUTH (rate 250) | damage to plant (100=total damage to plant; 0=no damage to plant), ABUTH (rate 500) | damage to plant (100=total damage to plant; 0=no damage to plant), BIDPI (rate 15) | damage to plant (100=total damage to plant; 0=no damage to plant), BIDPI (rate 30) | damage to plant (100=total damage to plant; 0=no damage to plant), BIDPI (rate 60) | damage to plant (100=total damage to plant; 0=no damage to plant), BIDPI (rate 130) | damage to plant (100=total damage to plant; 0=no damage to plant), BIDPI (rate 250) | damage to plant (100=total damage to plant; 0=no damage to plant), BIDPI (rate 500) | damage to plant (100=total damage to plant; 0=no damage to plant), CYPES (rate 15) | damage to plant (100=total damage to plant; 0=no damage to plant), CYPES (rate 30) | damage to plant (100=total damage to plant; 0=no damage to plant), CYPES (rate 60) | damage to plant (100=total damage to plant; 0=no damage to plant), CYPES (rate 130) | damage to plant (100=total damage to plant; 0=no damage to plant), CYPES (rate 250) | damage to plant (100=total damage to plant; 0=no damage to plant), CYPES (rate 500) | damage to plant (100=total damage to plant; 0=no damage to plant), DIGSA (rate 15) | damage to plant (100=total damage to plant; 0=no damage to plant), ECHCG (rate 15) | damage to plant (100=total damage to plant; 0=no damage to plant), ELEIN (rate 15) | damage to plant (100=total damage to plant; 0=no damage to plant), ELEIN (rate 30) | damage to plant (100=total damage to plant; 0=no damage to plant), EPHHL (rate 15) | damage to plant (100=total damage to plant; 0=no damage to plant), EPHHL (rate 30) | damage to plant (100=total damage to plant; 0=no damage to plant), EPHHL (rate 60) | damage to plant (100=total damage to plant; 0=no damage to plant), EPHHL (rate 130) | damage to plant (100=total damage to plant; 0=no damage to plant), EPHHL (rate 250) | damage to plant (100=total damage to plant; 0=no damage to plant), GLXMA (rate 15) | damage to plant (100=total damage to plant; 0=no damage to plant), GLXMA (rate 30) | damage to plant (100=total damage to plant; 0=no damage to plant), GLXMA (rate 60) | damage to plant (100=total damage to plant; 0=no damage to plant), GLXMA (rate 130) | damage to plant (100=total damage to plant; 0=no damage to plant), GLXMA (rate 250) | damage to plant (100=total damage to plant; 0=no damage to plant), GLXMA (rate 500) | damage to plant (100=total damage to plant; 0=no damage to plant), IPOHE (rate 15) | damage to plant (100=total damage to plant; 0=no damage to plant), IPOHE (rate 30) | damage to plant (100=total damage to plant; 0=no damage to plant), IPOHE (rate 60) | damage to plant (100=total damage to plant; 0=no damage to plant), IPOHE (rate 130) | damage to plant (100=total damage to plant; 0=no damage to plant), IPOHE (rate 250) | damage to plant (100=total damage to plant; 0=no damage to plant), ORYSA (rate 15) | damage to plant (100=total damage to plant; 0=no damage to plant), ORYSA (rate 30) | damage to plant (100=total damage to plant; 0=no damage to plant), ORYSA (rate 60) | damage to plant (100=total damage to plant; 0=no damage to plant), ORYSA (rate 130) | damage to plant (100=total damage to plant; 0=no damage to plant), ORYSA (rate 250) | damage to plant (100=total damage to plant; 0=no damage to plant), ORYSA (rate 500) | damage to plant (100=total damage to plant; 0=no damage to plant), PANMI (rate 15) | damage to plant (100=total damage to plant; 0=no damage to plant), PANMI (rate 30) | damage to plant (100=total damage to plant; 0=no damage to plant), PANMI (rate 60) | damage to plant (100=total damage to plant; 0=no damage to plant), PANMI (rate 130) | damage to plant (100=total damage to plant; 0=no damage to plant), SIDSP (rate 15) | damage to plant (100=total damage to plant; 0=no damage to plant), SIDSP (rate 30) | damage to plant (100=total damage to plant; 0=no damage to plant), SIDSP (rate 60) | damage to plant (100=total damage to plant; 0=no damage to plant), SIDSP (rate 500) | damage to plant (100=total damage to plant; 0=no damage to plant), SORVU (rate 15) | damage to plant (100=total damage to plant; 0=no damage to plant), SORVU (rate 30) | damage to plant, ALOMY [1] | damage to plant, AVEFA [1]
80: damage to plant (100=total damage to plant; 0=no damage to plant), BRAPL (rate 130) | damage to plant (100=total damage to plant; 0=no damage to plant), DIGSA (rate 60) | damage to plant (100=total damage to plant; 0=no damage to plant), ECHCG (rate 60) | damage to plant (100=total damage to plant; 0=no damage to plant), SETFA (rate 130)

From patent US20220281848A1, “PYRAZOLE-SUBSTITUTED PYRROLIDINONES AS HERBICIDES” (FMC Corporation, priority 2019, published 2022)
